Patent US11117947B2, “Double-acylated GLP-1 derivatives” (Novo Nordisk A/S, priority 2011, dated 2021)
Numbered stars: 1 amine (or outer) side, 2 acyl side, 3 side chain; on linkers, the order of the positions; unused ones are H or OH. Side chains are listed from the residue outwards. Peptide text beside a SMILES is read from it. * marks the point of attachment. Decanoyl(10-(4-HOOC-PhO)) = O=C(O)c1ccc(OCCCCCCCCCC(=O)*)cc1; γGlu = O=C(O)[C@H](CCC(=O)[*:2])N[*:1]; C14 diacid = O=C(O)CCCCCCCCCCCCC(=O)*; AEEA = NCCOCCOCC(=O)O

Assay: Estimate of oral bioavailability: gut injection in rat (caprate), exposure in plasma
Type: in vivo
Conditions: injection in jejunum, 1000 uM in 55 mg/ml sodium caprate, plasma concentration (pM) at 30 min divided by dosing solution concentration (μM), mean n=4
Procedure: The GLP-1 derivatives were tested in a concentration of 1000 uM in a solution of 55 mg/ml sodium caprate.
Male Sprague Dawley rats with a body weight upon arrival of approximately 240 g were obtained from Taconic (Denmark) and assigned to the different treatments by simple randomisation, 4 rats per group.
The GLP-1 derivatives were administered in the jejunum either in the proximal part (10 cm distal for the duodenum) or in the mid-intestine (50 cm proximal for the cecum). A PE50-catheter, 10 cm long was inserted into the jejunum, forwarded at least 1.5 cm into the jejunum, and secured before dosing by ligature around the gut and the catheter with 3/0 suture distal to tip to prevent leak or catheter displacement. Catheter was placed without syringe and needle and 2 ml saline was administered into abdomen before closing the incision with wound clips.
100 μl of the respective GLP-1 derivative was injected into the jejunal lumen through the catheter with a 1 ml syringe. Subsequently, 200 μl of air was pushed into the jejunal lumen with another syringe to “flush” the catheter. This syringe was leaved connected to the catheter to prevent flow back into the catheter.
Blood samples (200 ul) were collected at desired intervals (usually at times 0, 10, 30, 60, 120 and 240 min) into EDTA tubes from the tail vein and centrifuged 5 minutes, 10000G, at 4° C. within 20 minutes. […] 12, p. 240-247. The donor beads were coated with streptavidin, while acceptor beads were conjugated with a monoclonal antibody recognising a mid-/C-terminal epitope of the peptide. Another monoclonal antibody, specific for the N-terminus, was biotinylated. The three reactants were combined with the analyte and formed a two-sited immuno-complex. Illumination of the complex released singlet oxygen atoms from the donor beads, which were channeled into the acceptor beads and triggered chemiluminescence which was measured in an Envision plate reader. The amount of light was proportional to the concentration of the compound.
After the blood sampling the rats were sacrificed under anaesthesia and the abdomen was opened to verify correct catheter placement.
The mean (n=4) plasma concentrations (pmol/l) were determined as a function of time.

| Compound | Dose-corrected exposure at 30 min |
| --- | --- |
| CC[C@H](C)[C@H](NC(=O)[C@H](Cc1ccccc1)NC(=O)[C@H](CCCCNC(=O)COCCOCCNC(=O)COCCOCCNC(=O)CC[C@H](NC(=O)CCCCCCCCCOc1ccc(C(=O)O)cc1)C(=O)O)NC(=O)[C@H](CCCNC(=N)N)NC(=O)[C@@H](NC(=O)[C@H](C)NC(=O)[C@H](CCC(N)=O)NC(=O)CNC(=O)[C@H](CCC(=O)O)NC(=O)[C@H](CC(C)C)NC(=O)[C@H](Cc1ccc(O)cc1)NC(=O)[C@H](CO)NC(=O)[C@H](CO)NC(=O)[C@@H](NC(=O)[C@H](CC(=O)O)NC(=O)[C@H](CO)NC(=O)[C@@H](NC(=O)[C@H](Cc1ccccc1)NC(=O)[C@@H](NC(=O)CNC(=O)[C@H](CCC(=O)O)NC(=O)[C@H](C)NC(=O)[C@@H](N)Cc1c[nH]cn1)[C@@H](C)O)[C@@H](C)O)C(C)C)C(C)C)C(=O)N[C@@H](CCC(=O)O)C(=O)N[C@@H](Cc1c[nH]c2ccccc12)C(=O)N[C@@H](CC(C)C)C(=O)N[C@H](C(=O)N[C@@H](CCCNC(=N)N)C(=O)NCC(=O)N[C@@H](CCCCNC(=O)COCCOCCNC(=O)COCCOCCNC(=O)CC[C@H](NC(=O)CCCCCCCCCOc1ccc(C(=O)O)cc1)C(=O)O)C(=O)NCC(=O)N[C@@H](CCC(N)=O)C(=O)O)C(C)C [Example 12, N^α(N^ε27-[2-[2-[2-[[2-[2-[2-[[(4S)-4-carboxy-4-[10-(4-carboxyphenoxy)decanoylamino]butanoyl]amino]ethoxy]ethoxy]acetyl]amino]ethoxy]ethoxy]acetyl], N^ε36-[2-[2-[2-[[2-[2-[2-[[(4S)-4-carboxy-4-[10-(4-carboxyphenoxy)decanoylamino]butanoyl]amino]ethoxy]ethoxy]acetyl]amino]ethoxy]ethoxy]acetyl]-[Val^25,Arg^26,Lys^27,Glu^30,Arg^34,Lys^36]-GLP-1-(7-37)-peptidyl)-Gln] (H-HAEGTFTSDVSSYLEGQAVRK([AEEA-AEEA-γGlu-Decanoyl(10-(4-HOOC-PhO))])FIEWLVRGK([AEEA-AEEA-γGlu-Decanoyl(10-(4-HOOC-PhO))])GQ-OH; N-terminus and C-terminus assumed) | 68 |
| CC[C@H](C)[C@H](NC(=O)[C@H](Cc1ccccc1)NC(=O)[C@H](CCCCNC(=O)COCCOCCNC(=O)COCCOCCNC(=O)CC[C@H](NC(=O)CCCCCCCCCOc1ccc(C(=O)O)cc1)C(=O)O)NC(=O)[C@H](CCCNC(=N)N)NC(=O)[C@@H](NC(=O)[C@H](C)NC(=O)[C@H](CCC(N)=O)NC(=O)CNC(=O)[C@H](CCC(=O)O)NC(=O)[C@H](CC(C)C)NC(=O)[C@H](Cc1ccc(O)cc1)NC(=O)[C@H](CO)NC(=O)[C@H](CO)NC(=O)[C@@H](NC(=O)[C@H](CC(=O)O)NC(=O)[C@H](CO)NC(=O)[C@@H](NC(=O)[C@H](Cc1ccccc1)NC(=O)[C@@H](NC(=O)CNC(=O)[C@H](CCC(=O)O)NC(=O)[C@H](C)NC(=O)[C@@H](N)Cc1c[nH]cn1)[C@@H](C)O)[C@@H](C)O)C(C)C)C(C)C)C(=O)N[C@@H](CCC(=O)O)C(=O)N[C@@H](Cc1c[nH]c2ccccc12)C(=O)N[C@@H](CC(C)C)C(=O)N[C@H](C(=O)N[C@@H](CCC(N)=O)C(=O)NCC(=O)N[C@@H](CCCCNC(=O)COCCOCCNC(=O)COCCOCCNC(=O)CC[C@H](NC(=O)CCCCCCCCCOc1ccc(C(=O)O)cc1)C(=O)O)C(=O)NCC(=O)N[C@@H](CCC(=O)O)C(=O)O)C(C)C [Example 13, N^ε27-[2-[2-[2-[[2-[2-[2-[[(4S)-4-carboxy-4-[10-(4-carboxyphenoxy)decanoylamino]butanoyl]amino]ethoxy]ethoxy]acetyl]amino]ethoxy]ethoxy]acetyl], N^ε36-[2-[2-[2-[[2-[2-[2-[[(4S)-4-carboxy-4-[10-(4-carboxyphenoxy)decanoylamino]butanoyl]amino]ethoxy]ethoxy]acetyl]amino]ethoxy]ethoxy]acetyl]-[Val^25,Arg^26,Lys^27,Glu^30,Gln^34,Lys^36]-GLP-1-(7-37)-peptidyl-Glu] (H-HAEGTFTSDVSSYLEGQAVRK([AEEA-AEEA-γGlu-Decanoyl(10-(4-HOOC-PhO))])FIEWLVQGK([AEEA-AEEA-γGlu-Decanoyl(10-(4-HOOC-PhO))])GE-OH; N-terminus and C-terminus assumed) | 126 |
| CC[C@H](C)[C@H](NC(=O)[C@H](Cc1ccccc1)NC(=O)[C@H](CCCCNC(=O)CC[C@H](NC(=O)COCCOCCNC(=O)COCCOCCNC(=O)CCCCCCCCCCCCC(=O)O)C(=O)O)NC(=O)[C@H](CCCNC(=N)N)NC(=O)[C@H](C)NC(=O)[C@H](C)NC(=O)[C@H](CCC(N)=O)NC(=O)[C@H](CCCCNC(=O)CC[C@H](NC(=O)COCCOCCNC(=O)COCCOCCNC(=O)CCCCCCCCCCCCC(=O)O)C(=O)O)NC(=O)[C@H](CCC(=O)O)NC(=O)[C@H](CC(C)C)NC(=O)[C@H](Cc1ccc(O)cc1)NC(=O)[C@H](CO)NC(=O)[C@H](CO)NC(=O)[C@@H](NC(=O)[C@H](CC(=O)O)NC(=O)[C@H](CO)NC(=O)[C@@H](NC(=O)[C@H](Cc1ccccc1)NC(=O)[C@@H](NC(=O)CNC(=O)[C@H](CCC(=O)O)NC(=O)[C@H](C)NC(=O)[C@@H](N)Cc1c[nH]cn1)[C@@H](C)O)[C@@H](C)O)C(C)C)C(=O)N[C@@H](C)C(=O)N[C@@H](Cc1c[nH]cn1)C(=O)N[C@@H](CC(C)C)C(=O)N[C@H](C(=O)NCC(=O)O)C(C)C [Example 14, N^ε22-[(4S)-4-carboxy-4-[[2-[2-[2-[[2-[2-[2-(13-carboxytridecanoylamino)ethoxy]ethoxy]acetyl]amino]ethoxy]ethoxy]acetyl]amino]butanoyl], N^ε27-[(4S)-4-carboxy-4-[[2-[2-[2-[[2-[2-[2-(13-carboxytridecanoylamino)ethoxy]ethoxy]acetyl]amino]ethoxy]ethoxy]acetyl]amino]butanoyl]-[Lys^22,Arg^26,Lys^27,His^31,Gly^34]-GLP-1-(7-34)-peptide] (H-HAEGTFTSDVSSYLEK([γGlu-AEEA-AEEA-C14 diacid])QAARK([γGlu-AEEA-AEEA-C14 diacid])FIAHLVG-OH; N-terminus and C-terminus assumed) | 121 |
| CC[C@H](C)[C@H](NC(=O)[C@H](Cc1ccccc1)NC(=O)[C@H](CCCCNC(=O)CC[C@H](NC(=O)COCCOCCNC(=O)COCCOCCNC(=O)CCCCCCCCCCCCC(=O)O)C(=O)O)NC(=O)[C@H](CCCNC(=N)N)NC(=O)[C@H](C)NC(=O)[C@H](CCCCNC(=O)CC[C@H](NC(=O)COCCOCCNC(=O)COCCOCCNC(=O)CCCCCCCCCCCCC(=O)O)C(=O)O)NC(=O)[C@H](CCC(N)=O)NC(=O)[C@H](CCC(=O)O)NC(=O)[C@H](CCC(=O)O)NC(=O)[C@H](CC(C)C)NC(=O)[C@H](Cc1ccc(O)cc1)NC(=O)[C@H](CO)NC(=O)[C@H](CO)NC(=O)[C@@H](NC(=O)[C@H](CC(=O)O)NC(=O)[C@H](CO)NC(=O)[C@@H](NC(=O)[C@H](Cc1ccccc1)NC(=O)[C@@H](NC(=O)CNC(=O)[C@H](CCC(=O)O)NC(=O)[C@H](C)NC(=O)[C@@H](N)Cc1c[nH]cn1)[C@@H](C)O)[C@@H](C)O)C(C)C)C(=O)N[C@@H](C)C(=O)N[C@@H](Cc1c[nH]cn1)C(=O)N[C@@H](CC(C)C)C(=O)N[C@H](C(=O)NCC(=O)O)C(C)C [Example 22, N^ε24-[(4S)-4-carboxy-4-[[2-[2-[2-[[2-[2-[2-(13-carboxytridecanoylamino)ethoxy]ethoxy]acetyl]amino]ethoxy]ethoxy]acetyl]amino]butanoyl], N^ε27-[(4S)-4-carboxy-4-[[2-[2-[2-[[2-[2-[2-(13-carboxytridecanoylamino)ethoxy]ethoxy]acetyl]amino]ethoxy]ethoxy]acetyl]amino]butanoyl]-[Glu^22,Lys^24,Arg^26,Lys^27,His^31,Gly^34]-GLP-1-(7-34)-peptide] (H-HAEGTFTSDVSSYLEEQK([γGlu-AEEA-AEEA-C14 diacid])ARK([γGlu-AEEA-AEEA-C14 diacid])FIAHLVG-OH) | 275 |
